Laboratory results taken from paper PMC6934184, “Selective DNA-PKcs inhibition extends the therapeutic index of localized radiotherapy and chemotherapy” (The Journal of Clinical Investigation, 2019).

Molecular target: T1, KIT D816H (Homo sapiens, UniProt P10721, D816H)
T1 construct: purchased Thermo Fisher Scientific (Life Technologies) SelectScreen
Assay: SelectScreen LanthaScreen
Assay type: binding
Conditions: read-out: % displacement
Method in brief: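 NU5455 was profiled across the SelectScreen Broad panel of kinase activity and binding assays. Z'LYTE reactions such as CSF1R ran at apparent Km ATP, while the Adapta CAMK1 assay used ATP listed as 10. Values are given as percent.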

T1 sequence (P10721 26-976 D816H): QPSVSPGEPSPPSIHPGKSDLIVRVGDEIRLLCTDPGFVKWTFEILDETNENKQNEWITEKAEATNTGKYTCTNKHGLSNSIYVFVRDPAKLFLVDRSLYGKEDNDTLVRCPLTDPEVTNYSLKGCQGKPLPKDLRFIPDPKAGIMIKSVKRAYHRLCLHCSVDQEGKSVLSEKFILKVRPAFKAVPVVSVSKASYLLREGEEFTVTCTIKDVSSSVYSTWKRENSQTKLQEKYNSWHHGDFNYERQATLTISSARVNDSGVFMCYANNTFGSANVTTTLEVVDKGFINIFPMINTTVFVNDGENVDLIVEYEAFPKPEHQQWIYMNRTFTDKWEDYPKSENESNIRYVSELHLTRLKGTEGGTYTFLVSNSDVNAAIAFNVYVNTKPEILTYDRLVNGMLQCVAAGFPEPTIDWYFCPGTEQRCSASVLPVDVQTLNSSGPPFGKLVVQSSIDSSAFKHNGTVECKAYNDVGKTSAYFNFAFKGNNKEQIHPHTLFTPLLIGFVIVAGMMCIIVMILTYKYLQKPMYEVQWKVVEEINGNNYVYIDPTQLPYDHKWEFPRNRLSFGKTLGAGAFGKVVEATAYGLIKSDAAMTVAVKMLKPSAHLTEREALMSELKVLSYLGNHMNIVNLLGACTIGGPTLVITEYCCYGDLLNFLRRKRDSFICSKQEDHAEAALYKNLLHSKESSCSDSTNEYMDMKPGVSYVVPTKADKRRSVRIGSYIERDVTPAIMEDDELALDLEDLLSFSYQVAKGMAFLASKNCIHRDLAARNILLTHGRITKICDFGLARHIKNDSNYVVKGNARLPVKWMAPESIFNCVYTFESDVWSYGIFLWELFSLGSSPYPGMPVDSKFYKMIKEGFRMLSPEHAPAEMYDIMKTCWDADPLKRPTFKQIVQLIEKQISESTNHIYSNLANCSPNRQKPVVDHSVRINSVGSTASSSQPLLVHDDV

`CN(C(=O)CN1CCOCC1)c1ccc2sc3c(-c4cccc5c(=O)cc(N6CC7CCC(C6)O7)oc45)cccc3c2c1` [NU5455] showed an inhibition at 1 µM of -0.2%.
